Consider one compound from patent US20020035998A1, “Method for treatment of cancer and infectious disease” (priority 1995, published 2002).

Data set [1] has as its system K562 target cells. Briefly: NK cell cytotoxicity (NKCC), 16-hour 51Cr-release assay against K562 target cells. The data set is classed as cell-based, human. The following applies: for NK cell cytotoxicity (NKCC) after treatment: serotonin 10^−4 M and/or IFN-α 25 U/ml, 16 h, 10^4 K562, mean ± SEM of six. The source says: (§1) MNC were obtained from peripheral venous blood from healthy human blood donors by Ficoll-Hypaque centrifuging, followed by Percoll density-gradient fractionation (Timonen and Saksela, 1980, J. Immunol. Methods 36, 285-291; Hellstrand and Hermodsson, 1990, Scand. J. Immunol. 31, 631-645).
(§2) The target cells used in these experiments were K562, an NK-cell sensitive erythroleukemic cell line, or Daudi, a relatively NK-insensitive EBV-transformed B-cell lymphoblastoid cell line.
(§3) The NKCC was determined six times as the specific ^51Cr-release for a NMNC: target-cell ratio of between 30:1 and 3.8:1 in two-fold dilution gradients. The suspensions of MNC/target cells were incubated in microplates at 37° C. for 6 hours (Daudi) or 16 hours (K562). The supernatant solution was then collected and examined for radioactivity in a gamma counter. The maximum ^51Cr-release was measured in target cell cultures treated with Triton X-100. The NKCC was calculated as the cell lysis % by the formula 100×(experimental release−spontaneous release/maximum release−spontaneous release)=cell lysis %.
A low-density Percoll fraction was separated by counterflow centrifuge elusion (CCE) in a monocyte and in a lymphocyte fraction. The monocyte fraction was concentrated to >90% purity whereupon the contaminating cells consisted of large lymphocytes. The lymphocyte fractions obtained by CCE contained <3% monocytes, determined by morphology and Leu-M3 (CD14) antigen expression. The lymphocytes were […], […] , CD3^+/16^−/56^− T cells (45-50%), CD3^+/16^+/56^+ cells (1-5%), determined by flow cytometry.
J The eluted monocytes and/or the NK cell-concentrated low-density lymphocytes were treated with IFN-α and histamine/serotonin. The compounds were added, separately or in combination, to mixtures of MNC and K562 target cells at the start of a 16-hour ^51Cr-release assay. The cytotoxicity against K562 in the NK cell-concentrated lymphocyte fraction was increased by IFN-α and unaffected by histamine or serotonin. […] The addition of eluted monocytes to the NK cell concentrated lymphocytes suppressed the baseline cytotoxicity to K562.
In the experiments reported in Table 1, eluted lymphocytes were mixed with monocytes as shown in the table, in a total volume of 150 μl. The data are NKCC (mean ±SEM) of six determinations. Serotonin 10^−4 M and/or IFN-α (25 U/ml) was added at the start of a 16-hour microcytotoxicity test against 10^4 K562 target cells.
(§4) In the results shown in Table 2, MNC from five different donors were used. All compounds were added to mixtures of MNC and target cells at the start of a 6 h (Daudi) or 16 h (K562) effecter and target cell incubation. The effecter cells were obtained from Percoll fractions 7-8, containing 33-55% monocytes.
Cells from the monocyte-containing Percoll fraction 8 were incubated with culture medium, histamine (10^−4 M) or serotonin (10^−4 M) in the presence of IFN-α (0-100 U/ml). The data shown are NKCC (cell lysis %; mean±SEM of six determinations). The compounds were added at the start of a 16 h microcytotoxicity test against K 562 target cells.

Data set [2] concerns Daudi target cells. The experiment in a line: NK cell cytotoxicity (NKCC), 6-hour 51Cr-release assay against Daudi target cells. Format: cell-based, human. Particulars: Daudi 6 h; for NKCC after treatment with Medium: no IFN.
From the text: as §1, §2, §3, §4
In the experiment shown in Table 3, culture medium (control), histamine (10^−4 M), dimaprit (10^−4 M), ranitidine (ran) (10^−4 M) and/or IFN-α (25 U/ml) were added at the start of a 6-hour ^51Cr release assay using Daudi target cells. The data are representative of three similar experiments. NKCC is given as mean cell lysis %±SEM of six determinations. The effecter cells were recovered from a low-density Percoll fraction 8, containing around 40% monocytes.
In the experiment shown in Table 4, culture medium (control), serotonin, 8-OH-DPAT (+)-ALK and/or IFN-α (25 U/ml) were added at the start of a 6-hour ^51Cr-release assay against Daudi target cells. The NKCC is given as cell lysis %±SEM of six determinations. The effector cells were recovered from the low-density Percoll fraction 7, containing around 36% monocytes.

The mark [3] stands for this setting: mixtures of eluted monocytes and NK cell-enriched lymphocytes.

Take `NCCc1c[nH]c2ccc(O)cc12` [Serotonin, serotonin]: the “cytotoxicity against K562 in the NK cell-concentrated lymphocyte fraction” value in data set [1] (eluted lymphocytes without monocytes, 16-hour assay) is listed as “unaffected”. In addition, in data set [1] (setting [3]), the “basal cytotoxicity of lymphocytes in mixtures of monocytes and lymphocytes” value is given as “restored”. Also, in data set [1] (setting [3]), the “monocyte induced inhibition of the NK cell response to IFN-α” value is on record as “eliminated”. The “NK cell cytotoxicity (NKCC) after treatment” value in data set [1] (monocytes 0, lymphocytes 12 (×10^−4)) is given as 34 ± 3%; in data set [1] (monocytes 6, lymphocytes 12 (×10^−4)), 31 ± 2%; in data set [1] (monocytes 12, lymphocytes 12 (×10^−4)), 31 ± 2%. Moreover, the “NKCC after treatment with IFN” value in data set [2] (agonist 10^−4 M plus IFN-α 25 U/ml, Percoll fraction 7) is given as 44.3 ± 1%; in data set [2] (agonist 10^−5 M plus IFN-α 25 U/ml, Percoll fraction 7) it was 33.2 ± 1%; in data set [2] (agonist 10^−6 M plus IFN-α 25 U/ml, Percoll fraction 7), 12.3 ± 1%. The “NKCC after treatment with Medium” value amounted to 10.4 ± 1% in data set [2] (agonist 10^−4 M, Percoll fraction 7, around 36% monocytes); 4.5 ± 0.3% in data set [2] (agonist 10^−5 M, Percoll fraction 7); 2.2 ± 0.4% in data set [2] (agonist 10^−6 M, Percoll fraction 7).
